In article PMC5218480 (PLoS ONE, 2017):

Tested on: MV-4-11 cells
Experiment: Gene expression microarray analysis (Affymetrix PrimeView) and GSEA
Format: cell-based, human
Parameters: RFU PODN (11730768_x_at) / Fold change /veh PODN (11730768_x_at) / RFU LINC00158 (11744669_a_at) / Fold change /veh LINC00158 (11744669_a_at) / RFU DUSP10 (11751237_a_at) / Fold change /veh DUSP10 (11751237_a_at) / RFU ID3 (11757404_x_at) / Fold change /veh ID3 (11757404_x_at) / RFU PLEKHG5 (11737974_s_at) / Fold change /veh PLEKHG5 (11737974_s_at) / RFU LRRC4B (11730491_at) / Fold change /veh LRRC4B (11730491_at) / RFU GIMAP4 (11747438_a_at) / Fold change /veh GIMAP4 (11747438_a_at) / RFU KRT8 (11758183_x_at) / Fold change /veh KRT8 (11758183_x_at) / RFU CNN1 (11734310_a_at) / Fold change /veh CNN1 (11734310_a_at) / RFU VPS37D (11726825_at) / Fold change /veh VPS37D (11726825_at) / RFU C10orf10 (11716522_x_at) / Fold change /veh C10orf10 (11716522_x_at) / RFU KIR2DL2 /// KIR2DL4 /// KIR2DL5A /// KIR2DL5B /// KIR2DS1 /// KIR2DS2 /// KIR2DS3 /// KIR2DS4 /// KIR3DL3 /// KIR3DL3 /// KIR3DS1 (11738374_at) / Fold change /veh KIR2DL2 /// KIR2DL4 /// KIR2DL5A /// KIR2DL5B /// KIR2DS1 /// KIR2DS2 /// KIR2DS3 /// KIR2DS4 /// KIR3DL3 /// KIR3DL3 /// KIR3DS1 (11738374_at) / RFU C1QL1 (11718748_at) / Fold change /veh C1QL1 (11718748_at) / RFU TMPRSS4 (11747572_a_at) / Fold change /veh TMPRSS4 (11747572_a_at) / RFU HAMP (11756126_x_at) / Fold change /veh HAMP (11756126_x_at) / RFU RNFT2 (11725882_a_at) / Fold change /veh RNFT2 (11725882_a_at) / RFU NR4A2 (11747474_a_at) / Fold change /veh NR4A2 (11747474_a_at) / RFU ABCC12 (11746883_a_at) / Fold change /veh ABCC12 (11746883_a_at) / RFU TMEM136 (11760407_x_at) / Fold change /veh TMEM136 (11760407_x_at) / RFU CLDN22 /// WWC2 (11732394_at) / Fold change /veh CLDN22 /// WWC2 (11732394_at) / RFU HLA-DPB1 (11760878_x_at) / Fold change /veh HLA-DPB1 (11760878_x_at) / RFU SPINT1 (11716480_a_at) / Fold change /veh SPINT1 (11716480_a_at) / RFU GAP43 (11754022_s_at) / Fold change /veh GAP43 (11754022_s_at) / RFU A4GNT (11735810_at) / Fold change /veh A4GNT (11735810_at) / RFU PRB3 (11715151_x_at) / Fold change /veh PRB3 (11715151_x_at) / RFU TUBB4B (11761932_at) / Fold change /veh TUBB4B (11761932_at) / RFU CAPN14 (11732068_a_at) / Fold change /veh CAPN14 (11732068_a_at) / RFU TMCC2 (11721928_a_at) / Fold change /veh TMCC2 (11721928_a_at) / RFU IRGQ (11745062_a_at) / Fold change /veh IRGQ (11745062_a_at) / RFU FAM174B (11720279_a_at) / Fold change /veh FAM174B (11720279_a_at) / RFU TMPRSS4 (11748680_a_at) / Fold change /veh TMPRSS4 (11748680_a_at) / RFU FAM212B (11763350_a_at) / Fold change /veh FAM212B (11763350_a_at) / RFU PLEKHG5 (11743358_a_at) / Fold change /veh PLEKHG5 (11743358_a_at) / RFU ZSCAN30 (11745921_a_at) / Fold change /veh ZSCAN30 (11745921_a_at) / RFU CMKLR1 (11741424_a_at) / Fold change /veh CMKLR1 (11741424_a_at) / RFU LOC101060620 /// MAPK8IP1 (11723275_at) / Fold change /veh LOC101060620 /// MAPK8IP1 (11723275_at) / RFU SPTSSB (11747773_x_at) / Fold change /veh SPTSSB (11747773_x_at) / RFU PRSS12 (11739890_at) / Fold change /veh PRSS12 (11739890_at) / RFU BIN1 (11741810_x_at) / Fold change /veh BIN1 (11741810_x_at) / RFU WNT11 (11732464_a_at) / Fold change /veh WNT11 (11732464_a_at) / RFU C10orf10 (11716521_a_at) / Fold change /veh C10orf10 (11716521_a_at) / RFU C5orf56 (11738089_at) / Fold change /veh C5orf56 (11738089_at) / RFU CYB561 (11721691_x_at) / Fold change /veh CYB561 (11721691_x_at) / RFU ANKRD19P (11752326_a_at) / Fold change /veh ANKRD19P (11752326_a_at) / RFU OR2T12 /// OR2T33 /// OR2T8 (11738714_s_at) / Fold change /veh OR2T12 /// OR2T33 /// OR2T8 (11738714_s_at) / RFU VCAN (11748164_a_at) / Fold change /veh VCAN (11748164_a_at) / RFU JSRP1 (11732532_at) / Fold change /veh JSRP1 (11732532_at) / RFU KRTAP10-11 (11738290_x_at) / Fold change /veh KRTAP10-11 (11738290_x_at) / RFU MYO3A (11730013_a_at) / Fold change /veh MYO3A (11730013_a_at) / RFU EBF3 (11725865_a_at) / Fold change /veh EBF3 (11725865_a_at) / RFU CAMK2N1 (11719241_x_at) / Fold change /veh CAMK2N1 (11719241_x_at) / RFU C5orf56 (11738088_a_at) / Fold change /veh C5orf56 (11738088_a_at) / RFU OLFML3 (11715873_a_at) / Fold change /veh OLFML3 (11715873_a_at) / RFU LOC100653217 /// NTM (11731650_a_at) / Fold change /veh LOC100653217 /// NTM (11731650_a_at) / RFU MAPK11 (11762145_a_at) / Fold change /veh MAPK11 (11762145_a_at) / RFU FIZ1 (11724087_x_at) / Fold change /veh FIZ1 (11724087_x_at) / RFU OASL (11726364_x_at) / Fold change /veh OASL (11726364_x_at) / RFU SOX15 (11748057_x_at) / Fold change /veh SOX15 (11748057_x_at) / RFU CD79A (11719716_a_at) / Fold change /veh CD79A (11719716_a_at) / RFU HIST1H1D (11736915_at) / Fold change /veh HIST1H1D (11736915_at) / RFU CASKIN2 (11723855_a_at) / Fold change /veh CASKIN2 (11723855_a_at) / RFU LOC730098 (11760151_x_at) / Fold change /veh LOC730098 (11760151_x_at) / RFU OR4N2 (11742367_at) / Fold change /veh OR4N2 (11742367_at) / RFU PRRT2 (11749266_a_at) / Fold change /veh PRRT2 (11749266_a_at) / RFU SNX32 (11753110_a_at) / Fold change /veh SNX32 (11753110_a_at) / RFU CDHR5 (11726645_a_at) / Fold change /veh CDHR5 (11726645_a_at) / RFU RCAN1 (11760418_a_at) / Fold change /veh RCAN1 (11760418_a_at) / RFU FAM167A (11723789_a_at) / Fold change /veh FAM167A (11723789_a_at) / RFU FAM26E (11764081_at) / Fold change /veh FAM26E (11764081_at) / RFU ISYNA1 (11749810_s_at) / Fold change /veh ISYNA1 (11749810_s_at) / RFU ACY1 (11761880_at) / Fold change /veh ACY1 (11761880_at) / RFU 11764098_at / Fold change /veh 11764098_at / RFU SAMD14 (11745864_x_at) / Fold change /veh SAMD14 (11745864_x_at) / RFU NPB (11741838_a_at) / Fold change /veh NPB (11741838_a_at) / RFU TMPRSS6 (11731388_a_at) / Fold change /veh TMPRSS6 (11731388_a_at) / RFU KRTAP10-2 (11738614_at) / Fold change /veh KRTAP10-2 (11738614_at) / RFU ARHGAP8 /// PRR5-ARHGAP8 (11727945_x_at) / Fold change /veh ARHGAP8 /// PRR5-ARHGAP8 (11727945_x_at) / RFU KRTAP5-7 /// NADSYN1 (11734609_at) / Fold change /veh KRTAP5-7 /// NADSYN1 (11734609_at) / RFU RASL12 (11751679_a_at) / Fold change /veh RASL12 (11751679_a_at) / RFU CDKN2B (11736163_a_at) / Fold change /veh CDKN2B (11736163_a_at) / RFU PRF1 (11729649_at) / Fold change /veh PRF1 (11729649_at) / RFU, ZNF638 /// ZNF638-IT1 / Fold change vs veh, ZNF638 /// ZNF638-IT1 / RFU, PANK3 / Fold change vs veh, PANK3 / RFU, SH3YL1 / Fold change vs veh, SH3YL1 / RFU, ZEB2 / Fold change vs veh, ZEB2 / RFU, NRIP1 / Fold change vs veh, NRIP1 / RFU, PTTG1IP / Fold change vs veh, PTTG1IP / RFU, CAPN2 / Fold change vs veh, CAPN2 / RFU, MED14 / Fold change vs veh, MED14 / RFU, SNORA58 / Fold change vs veh, SNORA58 / RFU, C1orf63 / Fold change vs veh, C1orf63 / RFU, LRRFIP1 / Fold change vs veh, LRRFIP1 / RFU, NDUFAF7 / Fold change vs veh, NDUFAF7 / RFU, SLC12A2 / Fold change vs veh, SLC12A2 / RFU, IBTK / Fold change vs veh, IBTK / RFU, ESF1 / Fold change vs veh, ESF1 / Fold change vs veh, TMEM50B / RFU, TAOK1 / Fold change vs veh, TAOK1 / RFU, ACBD3 / Fold change vs veh, ACBD3 / RFU, TMA16 / Fold change vs veh, TMA16 / RFU, RWDD3 / Fold change vs veh, RWDD3 / RFU, BCAT1 / Fold change vs veh, BCAT1 / RFU, EDEM3 / Fold change vs veh, EDEM3 / RFU, TMEM33 / Fold change vs veh, TMEM33 / RFU, WDR75 / Fold change vs veh, WDR75 / RFU, AHCTF1 / Fold change vs veh, AHCTF1 / RFU, TFRC / Fold change vs veh, TFRC / RFU, ZDHHC17 / Fold change vs veh, ZDHHC17 / RFU, NOM1 / Fold change vs veh, NOM1 / RFU, ARL8B / Fold change vs veh, ARL8B / RFU, ZBTB11 / Fold change vs veh, ZBTB11 / RFU, TAMM41 / Fold change vs veh, TAMM41 / RFU, KIAA1704 /// LOC100996395 / Fold change vs veh, KIAA1704 /// LOC100996395 / RFU, ING1 / Fold change vs veh, ING1 / RFU, TRMT61B / Fold change vs veh, TRMT61B / RFU, FUBP3 / Fold change vs veh, FUBP3 / RFU, TP53 / Fold change vs veh, TP53 / RFU, TNKS2 / Fold change vs veh, TNKS2 / RFU, ZFP14 / Fold change vs veh, ZFP14 / RFU, ACTR2 / Fold change vs veh, ACTR2 / RFU, PPP3R1 / Fold change vs veh, PPP3R1 / RFU, PIK3R1 / Fold change vs veh, PIK3R1 / RFU, HNRNPA1 / Fold change vs veh, HNRNPA1 / RFU, RNF170 / Fold change vs veh, RNF170 / RFU, ZNF28 / Fold change vs veh, ZNF28 / RFU, RNGTT / Fold change vs veh, RNGTT / RFU, OGT / Fold change vs veh, OGT / RFU, BRD1 / Fold change vs veh, BRD1 / RFU, MARS / Fold change vs veh, MARS / RFU, ZNF655 / Fold change vs veh, ZNF655 / RFU, FAHD1 / Fold change vs veh, FAHD1 / RFU, BDP1 / Fold change vs veh, BDP1 / RFU, LRRCC1 / Fold change vs veh, LRRCC1 / RFU, ARID1A / Fold change vs veh, ARID1A / RFU, ZNF146 / Fold change vs veh, ZNF146 / RFU, ZNF330 / Fold change vs veh, ZNF330 / RFU, GPN3 / Fold change vs veh, GPN3 / RFU, C9orf123 / Fold change vs veh, C9orf123 / RFU, N4BP2L2 / Fold change vs veh, N4BP2L2 / RFU, ARFIP1 / Fold change vs veh, ARFIP1 / RFU, FAM179B / Fold change vs veh, FAM179B / RFU, BCL10 / Fold change vs veh, BCL10 / RFU, UHRF1BP1L / Fold change vs veh, UHRF1BP1L / RFU, BET1 / Fold change vs veh, BET1 / RFU, CNOT2 / Fold change vs veh, CNOT2 / RFU, ZNF268 / Fold change vs veh, ZNF268 / Fold change vs veh, ZNF507 / RFU, DGCR2 / Fold change vs veh, DGCR2 / RFU, WDSUB1 / Fold change vs veh, WDSUB1 / Fold change vs veh, HSP90B1 /// MIR3652 / RFU, ADSS / Fold change vs veh, ADSS / RFU, GK / Fold change vs veh, GK / RFU, ZNF148 / Fold change vs veh, ZNF148 / RFU, TAF9 / Fold change vs veh, TAF9 / RFU, SLC1A5 / Fold change vs veh, SLC1A5 / RFU, SLMO2 / Fold change vs veh, SLMO2 / RFU, ABCC4 / Fold change vs veh, ABCC4 / RFU, LOC101060439 /// RAP1B / Fold change vs veh, LOC101060439 /// RAP1B / RFU, RFX7 / Fold change vs veh, RFX7 / RFU, GTPBP10 / Fold change vs veh, GTPBP10 / RFU, CNEP1R1 / Fold change vs veh, CNEP1R1 / RFU, BIVM-ERCC5 /// ERCC5 / Fold change vs veh, BIVM-ERCC5 /// ERCC5 / RFU, ILF3 / Fold change vs veh, ILF3 / RFU 11762660_at / Fold change /veh 11762660_at / RFU VCAN (11757783_s_at) / Fold change /veh VCAN (11757783_s_at) / RFU DDX43 (11728927_at) / Fold change /veh DDX43 (11728927_at) / RFU KRT8 (11758188_x_at) / Fold change /veh KRT8 (11758188_x_at) / RFU NKD1 (11759106_at) / Fold change /veh NKD1 (11759106_at) / RFU SRD5A1 (11742802_a_at) / Fold change /veh SRD5A1 (11742802_a_at) / RFU TPSAB1 /// TPSB2 (11721975_s_at) / Fold change /veh TPSAB1 /// TPSB2 (11721975_s_at) / RFU GSTM3 (11746129_a_at) / Fold change /veh GSTM3 (11746129_a_at) / RFU IL23R (11737362_x_at) / Fold change /veh IL23R (11737362_x_at) / RFU TMEM51 (11727254_a_at) / Fold change /veh TMEM51 (11727254_a_at) / RFU PIWIL2 (11732686_x_at) / Fold change /veh PIWIL2 (11732686_x_at) / RFU ORM1 (11744905_x_at) / Fold change /veh ORM1 (11744905_x_at) / RFU CCDC152 (11743942_at) / Fold change /veh CCDC152 (11743942_at) / RFU ECM1 (11717891_a_at) / Fold change /veh ECM1 (11717891_a_at) / RFU IL23R (11748794_a_at) / Fold change /veh IL23R (11748794_a_at) / RFU TNFAIP8L3 (11732012_x_at) / Fold change /veh TNFAIP8L3 (11732012_x_at) / RFU MBOAT4 (11741988_at) / Fold change /veh MBOAT4 (11741988_at) / RFU 11764193_at / Fold change /veh 11764193_at / RFU TMEM53 (11763286_at) / Fold change /veh TMEM53 (11763286_at) / RFU MAGEB2 (11727129_at) / Fold change /veh MAGEB2 (11727129_at) / RFU TMEM200A (11744735_a_at) / Fold change /veh TMEM200A (11744735_a_at) / RFU CCDC152 (11751479_a_at) / Fold change /veh CCDC152 (11751479_a_at) / RFU FAM211A (11726209_a_at) / Fold change /veh FAM211A (11726209_a_at) / RFU RGS16 (11746705_a_at) / Fold change /veh RGS16 (11746705_a_at) / RFU VCAN (11755009_s_at) / Fold change /veh VCAN (11755009_s_at) / RFU RHOB (11743442_s_at) / Fold change /veh RHOB (11743442_s_at) / RFU RGS16 (11720943_a_at) / Fold change /veh RGS16 (11720943_a_at) / RFU RGS16 (11720944_at) / Fold change /veh RGS16 (11720944_at) / RFU, VPS4B / Fold change vs veh, VPS4B / RFU, CREB1 / Fold change vs veh, CREB1 / RFU, DNAJC13 / Fold change vs veh, DNAJC13 / RFU, GNAQ / Fold change vs veh, GNAQ / RFU, CDK5R1 / Fold change vs veh, CDK5R1 / RFU, ZRANB3 / Fold change vs veh, ZRANB3 / RFU, CUL4A / Fold change vs veh, CUL4A / RFU, CCNY / Fold change vs veh, CCNY / RFU, UFL1 / Fold change vs veh, UFL1 / RFU, COG3 / Fold change vs veh, COG3 / RFU, DIAPH2 / Fold change vs veh, DIAPH2 / RFU, SKA2 / Fold change vs veh, SKA2 / RFU, AFF3 / Fold change vs veh, AFF3 / RFU, LMF1 / Fold change vs veh, LMF1 / RFU, IPO11 / Fold change vs veh, IPO11 / RFU, DFFB / Fold change vs veh, DFFB / RFU, FOXP1 / Fold change vs veh, FOXP1 / RFU, CARD8 / Fold change vs veh, CARD8 / RFU, STRN3 / Fold change vs veh, STRN3 / RFU, ADK / Fold change vs veh, ADK / RFU, RASSF2 / Fold change vs veh, RASSF2 / RFU, WIPF1 / Fold change vs veh, WIPF1 / RFU, LARP1B / Fold change vs veh, LARP1B / RFU, RASA1 / Fold change vs veh, RASA1 / RFU, RB1 / Fold change vs veh, RB1 / RFU, PPFIA1 / Fold change vs veh, PPFIA1 / RFU, MAT2A / Fold change vs veh, MAT2A / RFU, CCT5 / Fold change vs veh, CCT5 / RFU, WDR92 / Fold change vs veh, WDR92 / RFU, CUX1 / Fold change vs veh, CUX1 / RFU, TTC7A / Fold change vs veh, TTC7A / RFU, TMEM135 / Fold change vs veh, TMEM135 / RFU, DEPTOR / Fold change vs veh, DEPTOR / RFU, CPM / Fold change vs veh, CPM / RFU, DNAJB6 / Fold change vs veh, DNAJB6 / RFU, CACNA2D3 / Fold change vs veh, CACNA2D3 / RFU, DTX4 / Fold change vs veh, DTX4 / RFU, TFCP2 / Fold change vs veh, TFCP2 / RFU, GMCL1 /// GMCL1P1 / Fold change vs veh, GMCL1 /// GMCL1P1 / RFU, AEBP2 / Fold change vs veh, AEBP2 / RFU, SNHG1 /// SNORD22 /// SNORD25 /// SNORD26 /// SNORD27 /// SNORD28 /// SNORD29 /// SNORD31 / Fold change vs veh, SNHG1 /// SNORD22 /// SNORD25 /// SNORD26 /// SNORD27 /// SNORD28 /// SNORD29 /// SNORD31 / Fold change (Aza/veh), C12orf56 (ProbeSet 11735607_a_at) / Fold change (ACY-1035/veh), C12orf56 (ProbeSet 11735607_a_at) / Fold change (Aza/veh), FGFR1OP (ProbeSet 11751329_s_at) / Fold change (ACY-1035/veh), FGFR1OP (ProbeSet 11751329_s_at) / Fold change (Aza/veh), VPS36 (ProbeSet 11739960_a_at) / Fold change (ACY-1035/veh), VPS36 (ProbeSet 11739960_a_at) / RFU SYPL1 (11715823_x_at) / Fold change /veh SYPL1 (11715823_x_at) / RFU IGFBP7 (11715501_s_at) / Fold change /veh IGFBP7 (11715501_s_at) / RFU REEP3 (11722064_at) / Fold change /veh REEP3 (11722064_at) / RFU IGLL1 (11728026_x_at) / Fold change /veh IGLL1 (11728026_x_at): dose or concentration left out as unconfirmed
Conditions: ProbeSet 11733176_x_at; LIST B

Nc1ncn([C@@H]2O[C@H](CO)[C@@H](O)[C@H]2O)c(=O)n1 [azacitidine]
Fold change vs veh, ZNF507: 0.97
